Test results from ChEMBL document CHEMBL1158401, “Development of CoMFA and CoMSIA models of affinity and selectivity for indole ligands of cannabinoid CB1 and CB2 receptors” (Eur J Med Chem, 2009).

Assays:
[1] = Selectivity ratio of pKi for CB1 receptor in rat brain to pKi for human cloned CB2 receptor; format: tissue-based
[2] = Selectivity ratio of pKi for human cloned CB2 receptor to pKi for CB1 receptor in rat brain; format: tissue-based
Cannabinoid receptor 1 = Cannabinoid receptor 1 (Rattus norvegicus, UniProt P20272); assay: Displacement of [3H]CP-55940 from CB1 receptor in rat brain by filtration assay; format: tissue-based
Chain of Cannabinoid receptor 1 (P20272 whole entry): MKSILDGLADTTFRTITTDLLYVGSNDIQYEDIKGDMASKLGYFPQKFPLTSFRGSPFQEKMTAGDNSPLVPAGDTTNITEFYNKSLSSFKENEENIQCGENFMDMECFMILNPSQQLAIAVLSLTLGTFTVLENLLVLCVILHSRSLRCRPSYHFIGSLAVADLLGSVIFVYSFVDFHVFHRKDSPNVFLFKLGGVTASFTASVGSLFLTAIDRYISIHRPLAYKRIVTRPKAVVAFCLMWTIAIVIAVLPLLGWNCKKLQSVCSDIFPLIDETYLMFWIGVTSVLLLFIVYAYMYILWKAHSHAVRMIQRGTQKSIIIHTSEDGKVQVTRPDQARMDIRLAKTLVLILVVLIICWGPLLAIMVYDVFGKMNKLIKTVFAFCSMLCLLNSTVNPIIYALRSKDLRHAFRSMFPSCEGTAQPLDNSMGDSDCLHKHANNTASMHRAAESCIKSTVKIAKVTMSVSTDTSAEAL

Cannabinoid receptor 2 = Cannabinoid receptor 2 (Homo sapiens, UniProt P34972); assay: Displacement of [3H]CP-55940 from human cloned CB2 receptor by filtration assay
Chain of Cannabinoid receptor 2 (P34972 whole entry): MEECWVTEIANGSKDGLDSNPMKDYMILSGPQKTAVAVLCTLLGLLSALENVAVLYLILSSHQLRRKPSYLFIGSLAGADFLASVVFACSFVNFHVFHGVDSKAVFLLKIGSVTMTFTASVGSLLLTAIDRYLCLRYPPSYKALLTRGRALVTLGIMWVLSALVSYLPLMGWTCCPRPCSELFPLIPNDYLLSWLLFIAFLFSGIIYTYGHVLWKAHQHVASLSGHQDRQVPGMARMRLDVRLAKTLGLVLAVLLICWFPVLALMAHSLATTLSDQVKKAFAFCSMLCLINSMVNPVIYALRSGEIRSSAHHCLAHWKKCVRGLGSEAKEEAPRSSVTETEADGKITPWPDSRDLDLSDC

Row | Structure (SMILES) | Ratio pKi [1] | Ratio pKi [2] | Ki (Cannabinoid receptor 1) | Ki (Cannabinoid receptor 2)
1 | CCCCCn1c(C)c(C(=O)Cc2ccccc2Br)c2ccccc21 | 1.04 | 0.963 | – | –
2 | CCCCCn1c(C)c(C(=O)Cc2cccc(F)c2)c2ccccc21 | 0.945 | 1.06 | – | –
3 | CCCc1ccc(C(=O)c2c(C)n(CCC)c3ccccc23)c2ccccc12 | 0.919 | 1.09 | – | –
4 | CCCCCn1cc(C(=O)Cc2ccc(Cl)cc2)c2ccccc21 | 1.02 | 0.983 | – | –
5 | CCCCCn1c(C)c(C(=O)Cc2ccccc2C)c2ccccc21 | 0.989 | 1.01 | – | –
6 | CCCCCn1cc(C(=O)c2ccc(CCCC)c3ccccc23)c2ccccc21 | 0.964 | 1.04 | – | –
7 | CCCCCn1c(C)c(C(=O)c2cccc3cc(OC)ccc23)c2ccccc21 | 0.83 | 1.21 | – | –
8 | CCCn1c(C)c(C(=O)c2cccc3ccc(C)cc23)c2ccccc21 | 0.829 | 1.21 | 344 nM | 16 nM
9 | CCCCCn1cc(C(=O)Cc2ccc(F)cc2)c2ccccc21 | 0.99 | 1.01 | – | –
10 | CCCn1cc(C(=O)c2ccc(OCC)c3ccccc23)c2ccccc21 | 0.934 | 1.07 | – | –
11 | CCCCCn1c(C)c(C(=O)Cc2cccc(Cl)c2)c2ccccc21 | 1.01 | 0.989 | – | –
12 | CCCn1cc(C(=O)c2cccc3cc(OC)ccc23)c2ccccc21 | 0.82 | 1.22 | – | –
13 | CCCCCn1cc(C(=O)c2c(OC)ccc3ccccc23)c2ccccc21 | 0.788 | 1.27 | – | –
14 | CCCCCn1cc(C(=O)Cc2ccc(OC)cc2)c2ccccc21 | 0.94 | 1.06 | – | –
15 | CCCCCn1cc(C(=O)Cc2ccccc2Br)c2ccccc21 | 1.05 | 0.953 | – | –
16 | CCCCCn1c(C)c(C(=O)Cc2ccccc2)c2ccccc21 | 1.02 | 0.976 | – | –
17 | CCCCCn1cc(C(=O)c2cccc3cc(OC)ccc23)c2ccccc21 | 0.843 | 1.19 | – | –
18 | CCCn1c(C)c(C(=O)c2ccc(C)c3ccccc23)c2ccccc21 | 0.88 | 1.14 | – | –
19 | CCCCCn1cc(C(=O)Cc2ccc(C)cc2)c2ccccc21 | 1.08 | 0.925 | – | –
20 | CCCCCn1c(C)c(C(=O)c2c(OC)ccc3ccccc23)c2ccccc21 | 0.792 | 1.26 | – | –
21 | CCCCCn1cc(C(=O)Cc2ccccc2C)c2ccccc21 | 1.1 | 0.906 | – | –
22 | CCCn1cc(C(=O)c2cccc3ccc(OC)cc23)c2ccccc21 | 0.936 | 1.07 | – | –
23 | CCCCCn1cc(C(=O)c2ccc(OCC)c3ccccc23)c2ccccc21 | 1.04 | 0.957 | – | –
24 | CCCCCn1c(C)c(C(=O)c2ccc(CC)c3ccccc23)c2ccccc21 | 0.941 | 1.06 | – | –

Row | Structure (SMILES) | Ratio pKi [1] | Ratio pKi [2] | Ki (Cannabinoid receptor 1) | Ki (Cannabinoid receptor 2)
25 | CCCn1cc(C(=O)c2ccc(CC)c3ccccc23)c2ccccc21 | 0.935 | 1.07 | – | –
26 | CCCCCn1cc(C(=O)Cc2cccc(Cl)c2)c2ccccc21 | 1.06 | 0.939 | – | –
27 | CCCCCn1c(C)c(C(=O)c2ccc(OC)c3ccccc23)c2ccccc21 | 0.957 | 1.04 | 4.51 nM | 1.9 nM
28 | CCCCCn1cc(C(=O)c2ccc(C)c3ccccc23)c2ccccc21 | 1.03 | 0.973 | 0.69 nM | –
29 | CCCCc1ccc(C(=O)c2cn(CCC)c3ccccc23)c2ccccc12 | 0.888 | 1.13 | – | –
30 | CCCCCn1c(C)c(C(=O)c2ccc(CCCC)c3ccccc23)c2ccccc21 | 0.901 | 1.11 | – | –
31 | CCCCCn1c(C)c(C(=O)Cc2ccccc2OC)c2ccccc21 | 1.07 | 0.932 | – | –
32 | CCCCCn1cc(C(=O)c2cccc3ccccc23)c2ccccc21 | 0.942 | 1.06 | 9.02 nM | 2.9 nM
33 | CCCCc1ccc(C(=O)c2c(C)n(CCC)c3ccccc23)c2ccccc12 | 0.935 | 1.07 | – | –
34 | CCCn1cc(C(=O)c2cccc3ccc(CC)cc23)c2ccccc21 | 0.936 | 1.07 | – | –
35 | CCCCCn1cc(C(=O)Cc2ccccc2)c2ccccc21 | 1.04 | 0.964 | – | –
36 | CCCn1c(C)c(C(=O)c2ccc(CC)c3ccccc23)c2ccccc21 | 0.903 | 1.11 | – | –
37 | CCCCCn1c(C)c(C(=O)Cc2ccc(OC)cc2)c2ccccc21 | 0.933 | 1.07 | – | –
38 | CCCn1c(C)c(C(=O)c2ccc(OCC)c3ccccc23)c2ccccc21 | 0.919 | 1.09 | – | –
39 | CCCn1cc(C(=O)c2c(OC)ccc3ccccc23)c2ccccc21 | 0.764 | 1.31 | – | –
40 | CCCCCn1c(C)c(C(=O)Cc2ccccc2Cl)c2ccccc21 | 1.04 | 0.963 | – | –
41 | CCCn1cc(C(=O)c2cccc3ccc(C)cc23)c2ccccc21 | 0.956 | 1.04 | – | –
42 | CCCCCn1cc(C(=O)Cc2ccccc2Cl)c2ccccc21 | 0.993 | 1.01 | – | –
43 | CCCCCn1c(C)c(C(=O)c2ccc(OCC)c3ccccc23)c2ccccc21 | 0.991 | 1.01 | – | –
44 | CCCCCn1cc(C(=O)Cc2cccc(F)c2)c2ccccc21 | 1.01 | 0.985 | – | –
45 | CCCn1c(C)c(C(=O)c2cccc3ccc(OC)cc23)c2ccccc21 | 0.913 | 1.09 | – | –
46 | CCCCCn1c(C)c(C(=O)c2cccc3ccccc23)c2ccccc21 | 0.94 | 1.06 | 9.51 nM | 2.9 nM
47 | CCCn1cc(C(=O)c2ccc(C)c3ccccc23)c2ccccc21 | 0.728 | 1.37 | – | –
48 | CCCCCn1c(C)c(C(=O)Cc2ccc(Cl)cc2)c2ccccc21 | 1.07 | 0.936 | – | –

Row | Structure (SMILES) | Ratio pKi [1] | Ratio pKi [2] | Ki (Cannabinoid receptor 1) | Ki (Cannabinoid receptor 2)
49 | CCCn1c(C)c(C(=O)c2cccc3ccc(CC)cc23)c2ccccc21 | 0.887 | 1.13 | – | –
50 | CCCCCn1cc(C(=O)Cc2ccc(Br)cc2)c2ccccc21 | 0.969 | – | – | –
51 | CCCCCn1c(C)c(C(=O)Cc2cccc(OC)c2)c2ccccc21 | 1.02 | 0.981 | – | –
52 | CCCCCn1cc(C(=O)c2cccc3ccc(CC)cc23)c2ccccc21 | 0.959 | 1.04 | – | –
53 | CCCCCn1cc(C(=O)c2ccc(CC)c3ccccc23)c2ccccc21 | 1.02 | 0.981 | – | –
54 | CCCCCn1c(C)c(C(=O)c2cccc3ccc(CC)cc23)c2ccccc21 | 0.915 | 1.09 | – | –
55 | CCCCCn1c(C)c(C(=O)c2ccc(C)c3ccccc23)c2ccccc21 | 0.909 | 1.1 | 5 nM | –
56 | CCCn1c(C)c(C(=O)c2ccc(OC)c3ccccc23)c2ccccc21 | 0.901 | 1.11 | 476 nM | 97.1 nM
57 | CCCCCn1cc(C(=O)Cc2ccccc2OC)c2ccccc21 | 1.06 | 0.94 | – | –
58 | CCCCCn1cc(C(=O)c2cccc3ccc(OC)cc23)c2ccccc21 | 1 | 0.997 | – | –
59 | CCCc1ccc(C(=O)c2cn(CCC)c3ccccc23)c2ccccc12 | 0.946 | 1.06 | – | –
60 | CCCn1cc(C(=O)c2ccc(OC)c3ccccc23)c2ccccc21 | 0.961 | 1.04 | 63.1 nM | 32 nM
61 | CCCCCn1c(C)c(C(=O)Cc2ccccc2F)c2ccccc21 | 1.04 | 0.96 | – | –
62 | CCCCCn1c(C)c(C(=O)c2ccc(CCC)c3ccccc23)c2ccccc21 | 0.965 | 1.04 | – | –
63 | CCCCCn1cc(C(=O)Cc2cccc(OC)c2)c2ccccc21 | 1.1 | 0.907 | – | –
64 | CCCCCn1c(C)c(C(=O)c2cccc3ccc(OC)cc23)c2ccccc21 | 0.92 | 1.09 | – | –
65 | CCCCCn1cc(C(=O)c2ccc(CCC)c3ccccc23)c2ccccc21 | 1.02 | 0.975 | – | –
66 | CCCCCn1cc(C(=O)Cc2ccccc2F)c2ccccc21 | 1.03 | 0.969 | – | –
67 | CCCCCn1cc(C(=O)c2ccc(OC)c3ccccc23)c2ccccc21 | 1.13 | 0.886 | 1.2 nM | 12.4 nM
68 | CCCCCn1c(C)c(C(=O)c2cccc3ccc(C)cc23)c2ccccc21 | 0.856 | 1.17 | 10.7 nM | 0.49 nM
69 | CCCn1cc(C(=O)c2cccc3ccccc23)c2ccccc21 | 0.883 | 1.13 | 1050 nM | 170 nM
70 | CCCCCn1c(C)c(C(=O)Cc2ccc(C)cc2)c2ccccc21 | 1.04 | 0.957 | – | –
